Our source for the concentration and IC50 values is patent publication US11046709B2, “Fused 1,4-diazepines as BET bromodomain inhibitors” (THE REGENTS OF THE UNIVERSITY OF MICHIGAN, priority 2017, dated 2021).

Data set [1] is described as follows: Plasma exposure after oral gavage in mice, LC-MS/MS. Format: in vivo. Conditions: mouse, plasma, mice, oral gavage 25 mg/kg; for concentration at 1 h: read-out: Plasma concentration (ng/mL) 1 h; for concentration at 3 h: read-out: Plasma concentration (ng/mL) 3 h; for concentration at 6 h: read-out: Plasma concentration (ng/mL) 6 h. As to the method:
For a number of representative compounds in Table 5, their plasma exposures with oral administration in mice via oral gavage were determined by LC-MS/MS, with the data shown in Table 9.

A further data set concerns the target T1, recombinant BRD4 BD1 (Homo sapiens, UniProt O60885).
T1 construct: for recombinant BRD4 BD1 and BRD4 BD2 proteins
The data set can be described thus: Competitive fluorescence-polarization (FP) binding assay, BRD4 BD1.

The subject of a further data set is MOLM-13. The data set can be described thus: Cell growth inhibition, 4-day proliferation assay, MOLM-13. Format: cell-based. Conditions: Homo sapiens.
The target in the next data set is T2, recombinant BRD4 BD2 (Homo sapiens, UniProt O60885).
T2 construct: for recombinant BRD4 BD1 and BRD4 BD2 proteins
The data set can be described thus: Competitive fluorescence-polarization (FP) binding assay, BRD4 BD2.

The test system of the next data set is MDA-MB-231. Briefly: Cell growth inhibition, 4-day proliferation assay, MDA-MB-231. Format: cell-based. Conditions: Homo sapiens. The method, boiled down: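 WST-8 colorimetric read-out (absorbance 450 nm after 1-2 h) after 4-day compound exposure of 3,000-10,000 cells/well at 37 °C; IC50 from variable-slope sigmoid fit of DMSO-normalized signal.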
A further data set relates to RS4;11. The data set can be described thus: Cell growth inhibition, 4-day proliferation assay, RS4;11. Format: cell-based. As to conditions: Homo sapiens, RS4-11, 96 h, read-out: Cell IC50 (nM) RS4;11. The protocol:
The effect of representative Compounds of the Disclosure on cell viability was determined in a 4-day proliferation assay. Cells were maintained in the appropriate culture medium with 100/0 FBS at 37° C. and an atmosphere of 5% CO2. All the cell lines were used within three months of thawing fresh vials.
In general, cells were seeded in 96-well flat bottom (Corning COSTAR, Corning, N.Y., cat #3595) or white opaque cell culture plates (BD Falcon, cat #353296) at a density of 3,000-10,000 cells/well in 75 μl of culture medium. Compounds were serially diluted in the appropriate medium, and 75 μl of the diluted compounds were added to the appropriate wells of the cell plate. After the addition of compounds, the cells were incubated at 37° C. in an atmosphere of 5% CO2 for 4 days. Cell viability was determined using the CellTiter-Glo® Luminescent Cell Viability Assay Kit (Promega, Madison, Wis.) for leukemia cells and WST (2-(2-methoxy-4-nitrophenyl)-3-(4-nitrophenyl)-5-(2,4-disulfophenyl)-2H-tetrazolium, monosodium salt) Cell Counting-8 Kit (Dojindo Molecular Technologies, Inc., Rockville, Md.) for adherent cells according to the manufacturers' instructions.
For WST assay (adherent cells), WST-8 reagent was added to each well at a final concentration of 10% (v/v), and then the plates were incubated at 37° C. for 1-2 hours for color development. The absorbance was measured at 450 nm using a SPECTRAmax PLUS plate reader (Molecular Devices, Sunnyvale, Calif.). The readings were normalized to the DMSO-treated cells and the half maximal inhibitory concentration (IC50) was calculated by nonlinear regression (four parameters sigmoid fitted with variable slope, least squares fit, and no constraint) analysis using the GraphPad Prism 5 software (GraphPad Software, La Jolla, Calif.).
For CellTiter-Glo assay (suspension cells), 100 μl of CellTiter-Glo® Reagent was added to each well, and then the plates were incubated at room temperature for 10-20 minutes. The luminescent signal was measured using a Tecan Infinite M1000 multimode microplate reader (Tecan, Morrisville, N.C.). The readings were normalized to the DMSO-treated cells and the IC50 was calculated by nonlinear regression (four parameters sigmoid fitted with variable slope, least squares fit, and no constraint) analysis using the GraphPad Prism 5 software. See US 2014/0256706.
For a number of representative compounds in Table 5, their IC50 values in cell growth inhibition activity in the RS4;11 and MOLM-13 human leukemia cell lines and the MDA-MB-231 breast cancer cell line were evaluated using the WST-8 assay described in EXAMPLE 7, with the data shown in Table 7.

Setting [2] is: competitive FP, Table 6, read-out: IC50 as determinined in FP assays BRD4 BD1.
[3] abbreviates: MOLM-13, WST-8 assay, Table 7, read-out: Cell growth inhibition (IC50 (nM)) MOLM-13.
The mark [4] stands for this setting: competitive FP, Table 6, read-out: IC50 as determinined in FP assays BRD4 BD2.
[5] abbreviates: MDA-MB-231, WST-8 assay, Table 7, read-out: Cell growth inhibition (IC50 (nM)) MDA-MB-231.

Structures are written as SMILES. Read-outs that look alike come from different tables or passages of the source.

A word on the IC50: it is the concentration that gives 50% inhibition. As for `Cc1c(C#Cc2ccccn2)sc2c1C(c1ccc(Cl)cc1)=N[C@@H](CC(=O)N1CCOCC1)c1nnc(C)n1-2` [Compound 126, (S)-2-(4-(4-chlorophenyl)-3,9-dimethyl-2-(pyridin-2-ylethynyl)-6H-thieno[3,2-f][1,2,4]triazolo[4,3-a][1,4]diazepin-6-yl)-1-morpholinoethan-1-one], the concentration at 1 h in data set [1] stood at 2910 ng/mL. Further, the concentration at 3 h in data set [1] came out at 599 ng/mL. In addition, the concentration at 6 h in data set [1] is 473 ng/mL. The IC50 at recombinant BRD4 BD1 (setting [2]) is 8.7 nM; with MOLM-13 (setting [3]), 13.5 nM; on recombinant BRD4 BD2 (setting [4]), 27.8 nM; with MDA-MB-231 (setting [5]) it was 60.7 nM.

Take `Cc1nnc(C[C@@H]2N=C(c3ccc(Cl)cc3)c3c(sc(C#CC4CC4)c3C)-n3c(C)nnc32)o1` [Compound 143, (S)-2-((4-(4-chlorophenyl)-2-(cyclopropylethynyl)-3,9-dimethyl-6H-thieno[3,2-f][1,2,4]triazolo[4,3-a][1,4]diazepin-6-yl)methyl)-5-methyl-1,3,4-oxadiazole]: the concentration at 1 h in data set [1] was 3170 ng/mL. The concentration at 3 h in data set [1] worked out at 2700 ng/mL. Besides, in data set [1], the concentration at 6 h stood at 3670 ng/mL. Also, the IC50 on recombinant BRD4 BD1 (setting [2]) was 8.86 nM; in the data set with MOLM-13 (setting [3]), 6.06 nM; on recombinant BRD4 BD2 (setting [4]) it was 21.6 nM; in the data set with MDA-MB-231 (setting [5]), 6.59 nM.

As to `Cc1c(C#Cc2ccc3[nH]ncc3c2)sc2c1C(c1ccc(Cl)cc1)=NCc1nnc(C)n1-2` [compound 41, 2-((1H-indazol-5-yl)ethynyl)-4-(4-chlorophenyl)-3,9-dimethyl-6H-thieno[3,2-f][1,2,4]triazolo[4,3-a][1,4]diazepine], the IC50 in the data set on RS4;11 stood at 278 nM; with MDA-MB-231 (MDA-MB-231, 96 h, read-out: Cell IC50 (nM) MDA-MB-231), 680 nM.

Regarding `Cc1nnc(C[C@@H]2N=C(c3ccc(Cl)cc3)c3c(sc(C#CC4CCNCC4)c3C)-n3c(C)nnc32)o1` [Compound 174, (S)-2-((4-(4-chlorophenyl)-3,9-dimethyl-2-(piperidin-4-ylethynyl)-6H-thieno[3,2-f][1,2,4]triazolo[4,3-a][1,4]diazepin-6-yl)methyl)-5-methyl-1,3,4-oxadiazole], in data set [1], the concentration at 1 h turned out to be 56 ng/mL. Besides, the concentration at 3 h in data set [1] was determined as 12 ng/mL. In addition, in data set [1], the concentration at 6 h turned out to be 3 ng/mL. For the same molecule, the IC50 amounted to 49.9 nM on recombinant BRD4 BD1 (setting [2]), 3.1 nM in the data set with MOLM-13 (setting [3]), 46 nM at recombinant BRD4 BD2 (setting [4]) and 9.43 nM with MDA-MB-231 (setting [5]).

Consider `Cc1nnc(C[C@@H]2N=C(c3ccc(Cl)cc3)c3c(sc(C#CC(C)(C)O)c3C)-n3c(C)nnc32)o1` [Compound 144, (S)-4-(4-(4-chlorophenyl)-3,9-dimethyl-6-((5-methyl-1,3,4-oxadiazol-2-yl)methyl)-6H-thieno[3,2-f][1,2,4]triazolo[4,3-a][1,4]diazepin-2-yl)-2-methylbut-3-yn-2-ol], for which, in data set [1], the concentration at 1 h was 4160 ng/mL. In addition, in data set [1], the concentration at 3 h stood at 7580 ng/mL. In addition, in data set [1], the concentration at 6 h was 1120 ng/mL. Further, the IC50 was 21.8 nM on recombinant BRD4 BD1 (setting [2]), 36.4 nM in the data set with MOLM-13 (setting [3]), 26.4 nM on recombinant BRD4 BD2 (setting [4]) and 288 nM in the data set on MDA-MB-231 (setting [5]).

Take `Cc1c(C#Cc2cnn(C)c2)sc2c1C(c1ccc(Cl)cc1)=NCc1nnc(C)n1-2` [compound 23, 4-(4-chlorophenyl)-3,9-dimethyl-2-((1-methyl-1H-pyrazol-4-yl)ethynyl)-6H-thieno[3,2-f][1,2,4]triazolo[4,3-a][1,4]diazepine]: the IC50 in the data set on RS4;11 was above 100 nM; on recombinant BRD4 BD1, 14.3 nM; in the data set with MOLM-13 (MOLM-13, 96 h, read-out: Cell IC50 (nM) MOLM13) it was above 100 nM; on recombinant BRD4 BD2 it was 63.1 nM.

With `CCNC(=O)C[C@@H]1N=C(c2ccc(Cl)cc2)c2c(sc(C#Cc3ccccn3)c2C)-n2c(C)nnc21` [Compound 110, (S)-2-(4-(4-chlorophenyl)-3,9-dimethyl-2-(pyridin-2-ylethynyl)-6H-thieno[3,2-f][1,2,4]triazolo[4,3-a][1,4]diazepin-6-yl)-N-ethylacetamide], in data set [1], the concentration at 1 h was 1540 ng/mL. In addition, the concentration at 3 h in data set [1] is 1160 ng/mL. Moreover, in data set [1], the concentration at 6 h was 123 ng/mL. Further, the concentration for half-maximal inhibition (IC50) is 8.5 nM on recombinant BRD4 BD1 (setting [2]), 47.7 nM in the data set with MOLM-13 (setting [3]), 27.5 nM on recombinant BRD4 BD2 (setting [4]) and 310 ± 100 nM with MDA-MB-231 (setting [5]).

For `Cc1nnc(C[C@@H]2N=C(c3ccc(Cl)cc3)c3c(sc(C#CC4CCN(C)CC4)c3C)-n3c(C)nnc32)o1` [Compound 175, (S)-2-((4-(4-chlorophenyl)-3,9-dimethyl-2-((1-methylpiperidin-4-yl)ethynyl)-6H-thieno[3,2-f][1,2,4]triazolo[4,3-a][1,4]diazepin-6-yl)methyl)-5-methyl-1,3,4-oxadiazole], the concentration at 1 h in data set [1] worked out at 413 ng/mL. Further, in data set [1], the concentration at 3 h came to 384 ng/mL. Besides, the concentration at 6 h in data set [1] stood at 68 ng/mL. Moreover, the IC50 is 31.8 nM at recombinant BRD4 BD1 (setting [2]), 5 nM in the data set on MOLM-13 (setting [3]), 93.2 nM at recombinant BRD4 BD2 (setting [4]) and 3.96 nM in the data set with MDA-MB-231 (setting [5]).

As for `Cc1c(C#Cc2ccccn2)sc2c1C(c1ccc(Cl)cc1)=N[C@@H](CC(N)=O)c1nnc(C)n1-2` [Compound 109, (S)-2-(4-(4-chlorophenyl)-3,9-dimethyl-2-(pyridin-2-ylethynyl)-6H-thieno[3,2-f][1,2,4]triazolo[4,3-a][1,4]diazepin-6-yl)acetamide], the concentration at 1 h in data set [1] was determined as 2170 ng/mL. In addition, the concentration at 3 h in data set [1] is 609 ng/mL. Further, the concentration at 6 h in data set [1] is 184 ng/mL. Further, the IC50 at recombinant BRD4 BD1 (setting [2]) was 3.8 nM; with MOLM-13 (setting [3]) it was 7.2 nM; at recombinant BRD4 BD2 (setting [4]), 282 nM; with MDA-MB-231 (setting [5]) it was 2.57 nM.
